Measurements published in patent US9144579B2, “Polyesters and methods of use thereof” (Rutgers, The State University of New Jersey, priority 2012, dated 2015).
Where two headings read alike, the source gives them in different places.

Key:
[1] = system: NCTC clone 929 (strain L) mouse areolar fibroblast cells (L929 cells); details: 0.5% DMSO
Experimental: Polymers and diacids were separately dissolved in dimethyl sulfoxide (DMSO) and diluted with cell media to reach concentrations of 0.10 and 0.05 mg/mL. These solutions were sterilized under UV at λ=254 nm for 900 s (Spectronics Corporation, Westbury, N.Y.) and then allocated to wells in a 96-well plate with 2000 cells/well. DMSO (0.5%) in cell media was used as negative control.
Cell viability was determined using CellTiter 96® Aqueous One Solution Cell Proliferation Assay. After 24 h, 48 h, and 72 h incubation with polymers or diacids, 20 μL of (3-(4,5-dimethylthiazol-2-yl)-5-(3-carboxymethoxyphenyl)-2-(4-sulfophenyl)-2H-tetrazolium) (MTS) reagent was added to each well and further incubated for 2 h at 37° C. The absorbance was then recorded with a microplate reader (Coulter, Boulevard Brea, Calif.) at 492 nm.

[2] = Structure determination of released drugs (1H-NMR of day 5 release media); type: physicochemical; details: released at day 5, 1H-NMR chemical shifts and integration
Experimental: Release media from day 5 (time point with the highest drug concentration) were freeze-dried for 24 h at −40° C. and 133×10^−3 mBar (LABCONO Freeze Dry System/Freezon 4.5). The resulting white powder was dissolved in acidic water (5 mL, pH˜1) and extracted with DCM (5×3 mL). DCM was evaporated under reduced pressure and the samples dried under vacuum for 2 days. Solutions of the free drugs (1 and 2) were prepared and treated as described above for the release media. ^1H-NMR spectroscopy was used to confirm the chemical structures of the released drugs.

| chemical structure of drug released from polymer versus free drug [2] | Compound | cell proliferation / viability ([1]; 0.05 mg/mL, 24, 48 and 72 h) | cell proliferation / viability ([1]; 0.10 mg/mL, 24, 48 and 72 h) |
| --- | --- | --- | --- |
|  | CC(C)Cc1ccc(C(C)C(=O)OC(C(=O)O)C(OC(=O)C(C)c2ccc(CC(C)C)cc2)C(=O)O)cc1 (stereo not drawn) [6a, Ibuprofen-tartaric diacid] | normal cell proliferation | normal cell proliferation |
| preserved | CC(C)Cc1ccc(C(C)C(=O)O)cc1 (stereo not drawn) [compound 1, ibuprofen] |  |  |
|  | COc1ccc2cc(C(C)C(=O)OC(C(=O)O)C(OC(=O)C(C)c3ccc4cc(OC)ccc4c3)C(=O)O)ccc2c1 (stereo not drawn) [6b, Naproxen-Tartaric Diacid] | normal cell proliferation | normal cell proliferation |
| preserved | COc1ccc2cc([C@H](C)C(=O)O)ccc2c1 [compound 2, naproxen] |  |  |
